According to patent publication US11352322B2, “Cyclopropyl-amide compounds as dual LSD1/HDAC inhibitors” (Jubilant Epicore LLC, priority 2016, dated 2022):
Where a name gives a salt, the structure may show the parent alone. Read-outs that look alike come from different tables or passages of the source.

Tests used:
LSD1 = LSD1 (Homo sapiens (Human), UniProt O60341); assay: TR-FRET Assay for LSD1; details: read-out: LSD1 IC50
Protocol: TR-FRET Assay for LSD1 (Perkin Elmer)
Tranylcypromine (TCP), LSD1 inhibitor was procured from Selleckchem. […] Stop Solution containing 300 μM tranylcypromine in 1× LANCE Detection Buffer was added to the wells and incubated for 5 min at RT. Then, Detection mix containing 2 nM Eu-Ab and 50 nM ULight-Streptavidin in 1× LANCE Detection Buffer was prepared and added to the reaction mix. This mixture was incubated for 1 hour at room temperature.

[1] = Metabolic stability in liver microsomes, MLM; details: 1 μM, NADPH
Protocol: (§4) The microsomal suspension was prepared by adding liver microsomes to 100 mM potassium phosphate buffer (pH7.4) to give a final protein concentration of 0.5 mg/mL. The stock solution of NCE (10 mM in DMSO) was added to the microsomes to provide a final concentration of 1 μM. […] Samples were vortexed and centrifuged at 5,000 rpm for 10 min to remove proteins. Supernatant were analyzed on LC-MS/MS.

MM1S = assay: Anticancer activity: Alamar Blue assay, MM1S; type: cell-based; details: Homo sapiens, MM1.S, read-out: MM1S EC50
MV-4-11 = assay: cells; details: Homo sapiens, MV4-11, 144 h, read-out: Anticancer profileration EC50 MV-4-11
Protocol: (§1) Anticancer Activity: Alamar Blue Assay
(§2) Cells were seeded at 5000 cells/per well in 96-well tissue culture plate and incubated at 37° C./5% CO2. After 16-24 hours, fresh media was added to the wells. Compounds were then (1% DMSO conc.) added to the cells at 10 concentrations ranging from 10-0.0005 uM prepared in 3-fold serial dilutions. […] Alamar Blue™ reagent was added and incubated for 1-3 hours at 37° C./5% CO2. Plates were read on fluorescence reader at 540 nm excitation, 590 nm emission wave lengths.
(§3) As described above, compounds were tested for anticancer activities in different tumor cell lines and GI50 were determined.

HEL-92.1.7 = assay: cells; details: Homo sapiens, HEL 92.1.7, 144 h, read-out: Anticancer profileration EC50 HEL-92.1.7
Protocol: as §1, §2, §3

OCI-AML3 = assay: cells; details: Homo sapiens, OCI-AML-3, 144 h, read-out: Anticancer profileration EC50 OCI-AML3
Protocol: as §1, §2, §3

MDAMB231 = assay: cells; details: Homo sapiens, MDA-MB-231, 144 h, read-out: Anticancer profileration EC50 MDAMB231
Protocol: as §1, §2, §3

A375 = assay: cells; details: Homo sapiens, A-375, 144 h, read-out: Anticancer profileration EC50 A375
Protocol: as §1, §2, §3

CCRF-CEM = assay: cells; details: Homo sapiens, 144 h, read-out: Anticancer profileration EC50 CCRF-CEM
Protocol: as §1
Cells were seeded at 5000 cells/per well in 96-well tissue culture plate and incubated at 37° C./5% CO2. After 16-24 hours, fresh media was added to the wells. Compounds were then (1% DMSO conc.) added to the cells at 10 concentrations ranging from 10-0.0005 uM prepared in 3-fold serial dilutions. Cells were incubated for 68-72 h at 37° C./5% CO2. Alamar Blue™ reagent was added and incubated for 1-3 hours at 37° C./5% CO2. Plates were read on fluorescence reader at 540 nm excitation, 590 nm emission wave lengths.
as §3

[2] = Metabolic stability in liver microsomes, HLM; details: 1 μM, NADPH
Protocol: as §4

[3] = biological target: HDAC6 human recombinant enzyme (Homo sapiens (Human), UniProt Q9UBN7); assay: Histone Deacetylase Assay (BPS Biosciences), HDAC6; type: biochemical
Text: Histone Deacetylase Assay (BPS Biosciences)
Histone deacetylase assay was done as per manufacturer's instructions.

[4] = human, microsomes, 0.5 h, pH 7.4
Protocol: as §4

[5] = mouse, microsomes, 0.5 h, pH 7.4
Protocol: as §4

Sequence of HDAC6 human recombinant enzyme (Q9UBN7 whole entry): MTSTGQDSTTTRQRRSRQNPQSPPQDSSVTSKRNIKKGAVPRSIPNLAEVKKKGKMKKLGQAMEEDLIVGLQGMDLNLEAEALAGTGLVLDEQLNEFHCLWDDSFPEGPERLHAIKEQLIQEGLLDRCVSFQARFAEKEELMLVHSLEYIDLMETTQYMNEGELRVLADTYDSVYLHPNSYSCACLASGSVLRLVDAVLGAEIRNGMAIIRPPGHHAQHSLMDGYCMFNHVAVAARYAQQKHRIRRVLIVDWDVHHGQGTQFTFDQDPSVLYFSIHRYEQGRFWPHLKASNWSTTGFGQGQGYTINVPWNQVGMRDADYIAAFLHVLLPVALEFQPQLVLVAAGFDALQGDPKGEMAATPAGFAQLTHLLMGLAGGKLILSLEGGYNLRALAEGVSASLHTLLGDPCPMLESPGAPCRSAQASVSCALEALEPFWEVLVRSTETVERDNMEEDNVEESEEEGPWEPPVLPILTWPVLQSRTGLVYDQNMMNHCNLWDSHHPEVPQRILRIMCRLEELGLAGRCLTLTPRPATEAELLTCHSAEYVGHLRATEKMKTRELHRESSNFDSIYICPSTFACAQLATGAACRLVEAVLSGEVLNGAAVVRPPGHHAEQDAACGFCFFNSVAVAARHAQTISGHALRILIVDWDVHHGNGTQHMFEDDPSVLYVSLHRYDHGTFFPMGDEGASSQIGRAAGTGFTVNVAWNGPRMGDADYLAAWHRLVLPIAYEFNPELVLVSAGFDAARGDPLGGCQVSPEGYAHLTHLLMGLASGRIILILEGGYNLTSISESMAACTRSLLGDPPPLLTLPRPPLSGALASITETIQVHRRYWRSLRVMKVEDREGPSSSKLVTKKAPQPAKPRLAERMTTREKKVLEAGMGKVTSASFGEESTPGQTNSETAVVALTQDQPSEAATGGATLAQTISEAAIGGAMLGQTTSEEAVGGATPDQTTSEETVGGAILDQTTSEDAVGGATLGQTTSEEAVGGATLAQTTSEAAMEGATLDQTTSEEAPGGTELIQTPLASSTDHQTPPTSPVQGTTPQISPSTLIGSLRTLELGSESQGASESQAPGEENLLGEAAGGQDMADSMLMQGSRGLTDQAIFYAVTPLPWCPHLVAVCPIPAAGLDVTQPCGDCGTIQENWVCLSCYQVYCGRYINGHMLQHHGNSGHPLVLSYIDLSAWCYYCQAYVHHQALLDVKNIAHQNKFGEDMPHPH

| SMILES | IC50 (LSD1) | Metabolic stability MLM % remaining in 30 min [1] | EC50 (MM1S) | EC50 (MV-4-11) | EC50 (HEL-92.1.7) | EC50 (OCI-AML3) | EC50 (MDAMB231) | EC50 (A375) | EC50 (CCRF-CEM) | Metabolic stability HLM % remaining in 30 min [2] | IC50 [3] | Metabolic stability HLM % remaining in 30 min [4] | EC50 (MM1S; MM1S cells) | Metabolic stability MLM % remaining in 30 min [5] |
| --- | --- | --- | --- | --- | --- | --- | --- | --- | --- | --- | --- | --- | --- | --- |
| O=C(/C=C/c1ccc(CNC2CC2c2ccc(-c3ccc(Cl)cc3)cc2)cc1)NO (stereo not shown) [Example 5, (E)-3-(4-(((2-(4′-chloro-[1,1′-biphenyl]-4-yl)cyclopropyl)amino)methyl)phenyl)-N-hydroxyacrylamide TFA Salt] | 49 nM | 59% | 88 nM | 54 nM | 26 nM | 146 nM | 1600 nM | 2300 nM | 533 nM | 86% |  |  |  |  |
| O=C(NO)c1cnc(N2CCC(CNC3CC3c3ccc(F)cc3)CC2)nc1 (stereo not shown) [Example 8, 2-(4-(((2-(4-fluorophenyl)cyclopropyl)amino)methyl)piperidin-1-yl)-N-hydroxypyrimidine-5-carboxamide TFA Salt] |  | 52% | 7 nM | 48 nM | 42 nM | 46 nM | 193 nM | 698 nM | 119 nM | 88% | 88 nM |  |  |  |
| O=C(NO)c1cnc(N2CCC(NC3CC3c3ccc(OCc4ccc(F)cc4)cc3)CC2)nc1 (stereo not shown) [Example 12, 2-(4-((2-(4-((4-fluorobenzyl)oxy)phenyl)cyclopropyl)amino)piperidin-1-yl)-N-hydroxypyrimidine-5-carboxamide TFA Salt] |  | 85% | 11 nM | 9 nM | 4 nM | 41 nM | 1300 nM | 2800 nM | 375 nM | 95% |  |  |  |  |
| O=C(NO)c1ccc(CCCN2CCC(CNC3CC3c3ccccc3)CC2)cc1 (stereo not shown) [Example 43, N-hydroxy-4-(3-(4-(((2-phenylcyclopropyl)amino)methyl)piperidin-1-yl)propyl)benzamide TFA Salt] |  | 56% |  | 2 nM | 1 nM | 115 nM | 747 nM | 1030 nM | 493 nM | 40% |  |  |  |  |
| O=C(NO)c1ccc(CCCN2CC3(CC(NC4CC4c4ccccc4)C3)C2)cc1 (stereo not shown) [Example 46, N-hydroxy-4-(3-(6-((2-phenylcyclopropyl)amino)-2-azaspiro[3.3]heptan-2-1)propyl)benzamide TFA Salt] | 26 nM |  |  |  |  |  |  |  |  |  | 477 nM | 54/47% | 71 nM | 54/47% |
| O=C(NO)c1ccc(CCCN2CCC(CNC3CC3c3ccc(F)cc3)CC2)cc1 (stereo not shown) [Example 47, 4-[3-(4-{[2-(4-Fluoro-phenyl)-cyclopropylamino]-methyl}-piperidin-1-yl)-propyl]-N-hydroxy-benzamide TFA Salt] | 6 nM | 66% |  | 5 nM | 5 nM | 146 nM | 875 nM | 3600 nM | 1400 nM | 54% | 51 nM |  |  |  |
| COc1ccc(C2CC2NCC2CCN(CCCc3ccc(C(=O)NO)cc3)CC2)cc1 (stereo not shown) [Example 51, N-hydroxy-4-(3-(4-(((2-(4-methoxyphenyl)cyclopropyl)amino)methyl)piperidin-1-yl)propyl)benzamide TFA Salt] | 6 nM | 91% |  | 31 nM | 3 nM | 14 nM |  |  |  | 74% | 38 nM |  |  |  |
| O=C(NO)c1ccc(CCCN2CCC(CNC3CC3c3ccc(OCc4ccc(F)cc4)cc3)CC2)cc1 (stereo not shown) [Example 52, 4-(3-(4-(((2-(4-((4-fluorobenzyl)oxy)phenyl)cyclopropyl)amino)methyl)piperidin-1-yl)propyl)-N-hydroxybenzamide TFA Salt] | 4 nM | 56% |  | 1 nM | 5 nM | 22 nM | 891 nM | 1700 nM | 371 nM | 79% | 12 nM |  |  |  |
| O=C(NO)c1ccc(CCCN2CCC(CNC3CC3c3ccc(-c4ccc(Cl)cc4)cc3)CC2)cc1 (stereo not shown) [Example 56, 4-(3-(4-(((2-(4′-chloro-[1,1′-biphenyl]-4-yl)cyclopropyl)amino)methyl)piperidin-1-yl)propyl)-N-hydroxybenzamide TFA Salt] | 2 nM | 75% |  | 7 nM | 10 nM | 10 nM |  |  |  | 87% | 19 nM |  |  |  |
| COc1ccc(C2CC2NCc2cn3c(n2)CN(CCCc2ccc(C(=O)NO)cc2)CC3)cc1 (stereo not shown) [Example 71, N-hydroxy-4-(3-(2-(((2-(4-methoxyphenyl)cyclopropyl)amino)methyl)-5,6-dihydroimidazo[1,2-a]pyrazin-7(8H)-yl)propyl)benzamide TFA Salt] | 1100 nM | < 5% |  | 990 nM | 6050 nM | 732 nM |  |  |  | 73% | 28 nM |  |  |  |
| O=C(NO)c1ccc(CCCN2CCn3cc(CNC4CC4c4ccc(F)cc4)nc3C2)cc1 (stereo not shown) [Example 72, 4-(3-(2-(((2-(4-fluorophenyl)cyclopropyl)amino)methyl)-5,6-dihydroimidazo[1,2-a]pyrazin-7(8H)-yl)propyl)-N-hydroxybenzamide TFA Salt] | 730 nM | < 5% | 343 nM | 978 nM | 4800 nM | 573 nM |  |  |  | 67% | 18 nM |  |  |  |
